pIC50: −log10 of the molar value.
Columns and labels:
TNF-α = test: Whole bovine blood assay, LPS-induced TNF-α; assay type: cell-based; settings: fresh whole bovine blood, LPS stimulant
How it was run: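 Fresh heparinized bovine whole blood was preincubated with compound 4 h at 37 °C, then stimulated with LPS (final 1 μg/mL) for 18 h at 37 °C. Plasma TNF-α was quantified by MSD U-Plex chemiluminescent immunoassay, normalized to total protein (BCA), and IC50 taken for LPS-induced TNF-α inhibition.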

IL-1β = test: Whole bovine blood assay, LPS-induced IL-1β (inhibition / overstimulation); assay type: cell-based; settings: drug concentration giving overstimulation (OS) of LPS-induced IL-1β
Description: Whole Blood Assay-Fresh whole bovine blood samples were collected into heparinized vacutainer tubes. Assay plates were prepared with 25 μL of drug diluted in PBS at varying concentration in 96 round bottom wells, then 225 μL of blood was added and plates incubated at 37° C. for 4 hours. Cells were stimulated with LPS (or PBS for controls) by adding 25 μL to the plates at a final concentration of 1 μg/mL and incubated at 37° C. for 18 hours. To collect plasma, plates were centrifuged at 2,000×g for 10 minutes and 100 μL of supernatant was transferred to a 96 well polypropylene plate that was sealed and stored at −80° C. Samples were assayed for cytokines using the Meso Scale Discovery (MSD) platform (described below). This same MSD platform was used to assess cytokines in the plasma collected directly from drug treated animals.
Cytokine Detection—An MSD U-Plex cytokine assay was developed following the MSD U-Plex protocol guide and included biotinylated capture antibodies against: bovine Interleukin (IL)-1β (Biorad), bovine IL-6 (R&D Systems) and bovine tumor necrosis factor (TNF)-α (R&D Systems). The anti-IL-1β antibody was biotinylated using EZ-Link Sulfo-NHS-Biotin (Thermo Scientific) at a challenge ratio of 1:20 according to manufacturer instructions. Assay calibrators (Kingfisher) were diluted to a concentration of […] in control lithium heparin plasma, followed by 4-fold serial dilutions into plasma. The detection antibodies were sulfo-tagged following the MSD quick guide conjugation protocol using a challenge ratio of 1:20. Antibodies were used at the following concentrations: anti-IL-1β at 1 μg/mL, anti-IL-6 at 1 μg/mL and anti-TNF-α at 0.5 μg/mL. Cytokines were quantified according to manufacturer's instructions using a chemiluminescent readout. In brief, 0.5 mL of all biotinylated antibodies were diluted to 10 μg/mL with Diluent 100 and paired to their respective linkers by adding 750 μL of supplied Linker solution and incubated for 30 minutes followed by addition of Stop solution for another 30 minutes. The linked antibodies were then diluted 10-fold into Stop solution. Plates were coated by adding 50 μL of antibody solutions per well and incubated covered and shaking for 1 hour at room temperature. Plates were washed three times with PBS/Tween20 prior to samples or standards being added at 30 μL per well and incubated as above. Plates were washed three times before detection antibodies were added along with 2% goat and rabbit serum to block and incubated same as above. Plates were washed a further three times before addition of 150 μL 2X Read buffer and read immediately on the SI6000 instrument (MSD). For soluble protein levels, a BCA protein kit (Thermofisher) was used. The cytokine concentrations (pg/mL) were normalized to the total protein levels for each sample. [Bassel et. al., BMC Veterinary Research (2020) 16:168]
Therefore, a fresh whole bovine blood assay was developed with LPS as a stimulant (TLR-4 agonist) and with IL-1β and TNF-α as the read-out. Compounds of the invention were evaluated against a positive control for their ability to inhibit LPS-induced IL-1β and TNF-α as an overall evaluation of relative potency and modulation of target pathways.
For M9, the top dose of 500 μM was not high enough to determine an overstimulation of IL-1 B which was recorded as not applicable (n/a). The enhanced response indicates increased concentration of IL-1β cytokine at the drug concentration indicated. This is generally observed when compounds are out of range (high concentration) and stimulate a cellular toxicity signal. Further data supporting this hypothesis includes murine studies using a P. multocida infection in mice.
TNFα is a cell signaling protein, cytokine, that plays a key role in both acute and chronic inflammation. […]

Work on `CCCNC[C@]1(O)[C@H](C)O[C@@H](O[C@H]2[C@H](C)[C@@H](O[C@@H]3O[C@H](C)C[C@H](N(C)S(C)(=O)=O)[C@H]3O)[C@](C)(O)C[C@@H](C)CN[C@H](C)[C@@H](O)[C@](C)(O)[C@@H](CC)OC(=O)[C@@H]2C)C[C@@]1(C)OC` [Example B-59] yielded a pIC50 (TNF-α; top drug concentration 250 μM) of 3.82 and a minimal effective concentration (IL-1β; top concentration 250 μM) of 57 µM.
In the case of `CC[C@H]1OC(=O)[C@H](C)[C@@H](O[C@H]2C[C@@](C)(OC)[C@](O)(CNCCCN3CCCC3=O)[C@H](C)O2)[C@H](C)[C@@H](O[C@@H]2O[C@H](C)C[C@H](N(C)S(=O)(=O)Nc3ccc(C(F)(F)F)cc3)[C@H]2O)[C@](C)(O)C[C@@H](C)CN[C@H](C)[C@@H](O)[C@]1(C)O` [Example B-87], the pIC50 (TNF-α; top drug concentration 250 μM) was 4.77 and the minimal effective concentration (IL-1β; top concentration 250 μM) was 9 µM.
Work on `CC[C@H]1OC(=O)[C@H](C)[C@@H](O[C@H]2C[C@@](C)(OC)[C@](O)(CNCCNC(C)=O)[C@H](C)O2)[C@H](C)[C@@H](O[C@@H]2O[C@H](C)C[C@H](N(C)S(=O)(=O)Nc3ccc(C(F)(F)F)cc3)[C@H]2O)[C@](C)(O)C[C@@H](C)CN[C@H](C)[C@@H](O)[C@]1(C)O` [Example B-81] yielded a pIC50 (TNF-α; top drug concentration 250 μM) of 4.66 and a minimal effective concentration (IL-1β; top concentration 250 μM) of 15 µM.
`CCCNC[C@]1(O)[C@H](C)O[C@@H](O[C@H]2[C@H](C)[C@@H](O[C@@H]3O[C@H](C)C[C@H](N(C)S(=O)(=O)c4cnc5ccsc5c4)[C@H]3O)[C@](C)(O)C[C@@H](C)CN[C@H](C)[C@@H](O)[C@](C)(O)[C@@H](CC)OC(=O)[C@@H]2C)C[C@@]1(C)OC` [Example B-9] gave a pIC50 (TNF-α; top drug concentration 250 μM) of 4.26 and a minimal effective concentration (IL-1β; top concentration 250 μM) of 40 µM.
Work on `CCCNC[C@]1(O)[C@H](C)O[C@@H](O[C@H]2[C@H](C)[C@@H](O[C@@H]3O[C@H](C)C[C@H](N(C)S(=O)(=O)c4ccc(OC)cc4)[C@H]3O)[C@](C)(O)C[C@@H](C)CN[C@H](C)[C@@H](O)[C@](C)(O)[C@@H](CC)OC(=O)[C@@H]2C)C[C@@]1(C)OC` [Example B-18] yielded a pIC50 (TNF-α; dose of 500 μM (footnote ^)) of 4.82 and a minimal effective concentration (IL-1β; dose of 500 μM (footnote ^)) of 32 µM.
In the case of `CC[C@H]1OC(=O)[C@H](C)[C@@H](O)[C@H](C)[C@@H](O[C@@H]2O[C@H](C)C[C@H](N(C)S(=O)(=O)Nc3ccccc3)[C@H]2Oc2ccc(OC)cc2)[C@](C)(O)C[C@@H](C)CN[C@H](C)[C@@H](O)[C@]1(C)O` [Example A-36], the pIC50 (TNF-α; top drug concentration 250 μM) was 5.00 and the minimal effective concentration (IL-1β; top concentration 250 μM) was 4 µM.
`CC[C@H]1OC(=O)[C@H](C)[C@@H](O[C@H]2C[C@@](C)(OC)[C@](O)(CNCCCN(C)C)[C@H](C)O2)[C@H](C)[C@@H](O[C@@H]2O[C@H](C)C[C@H](N(C)S(=O)(=O)Nc3ccc(C(F)(F)F)cc3)[C@H]2O)[C@](C)(O)C[C@@H](C)CN[C@H](C)[C@@H](O)[C@]1(C)O` [Example B-74] showed a pIC50 (TNF-α; top drug concentration 250 μM) of 4.48 and a minimal effective concentration (IL-1β; top concentration 250 μM) of 16 µM.
In the case of `CC[C@H]1OC(=O)[C@H](C)[C@@H](O[C@H]2C[C@@](C)(OC)[C@](O)(CNCCOC(F)(F)F)[C@H](C)O2)[C@H](C)[C@@H](O[C@@H]2O[C@H](C)C[C@H](N(C)S(=O)(=O)Nc3ccc(C(F)(F)F)cc3)[C@H]2O)[C@](C)(O)C[C@@H](C)CN[C@H](C)[C@@H](O)[C@]1(C)O` [Example B-129], the pIC50 (TNF-α; top drug concentration 250 μM) was 5.00 and the minimal effective concentration (IL-1β; top concentration 250 μM) was 2 µM.
Work on `CCCNC[C@]1(O)[C@H](C)O[C@@H](O[C@H]2[C@H](C)[C@@H](O[C@@H]3O[C@H](C)C[C@H](N(C)S(=O)(=O)c4c(C)noc4C)[C@H]3O)[C@](C)(O)C[C@@H](C)CN[C@H](C)[C@@H](O)[C@](C)(O)[C@@H](CC)OC(=O)[C@@H]2C)C[C@@]1(C)OC` [Example B-4] yielded a minimal effective concentration (IL-1β; top concentration 250 μM) of 40 µM.
`CCCNC[C@]1(O)[C@H](C)O[C@@H](O[C@H]2[C@H](C)[C@@H](O[C@@H]3O[C@H](C)C[C@H](N(C)S(=O)(=O)c4ccc(C#N)nc4)[C@H]3O)[C@](C)(O)C[C@@H](C)CN[C@H](C)[C@@H](O)[C@](C)(O)[C@@H](CC)OC(=O)[C@@H]2C)C[C@@]1(C)OC` [Example B-17] showed a minimal effective concentration (IL-1β; top concentration 250 μM) of 100 µM.

Reference: patent publication US20250236616A1, “IMMUNOMODULATING AZALIDES” (Zoetis Services LLC, priority 2021, published 2025)
